The values below come from PMC5161622 (ACS synthetic biology, 2016).

“Also recorded” adds a separate entry of the source.

Assay [1] has as its target T1, β-gly W33G (Saccharolobus solfataricus, UniProt P22498, W33G). The assay can be described thus: 19F NMR competition assay with 6-fluoroindole reporter, β-gly W33G. The assay is classed as binding, Sulfolobus solfataricus. The settings on record: 2 mM 6-fluoroindole, 500 μM protein; for displacement of 6-fluoroindole reporter (19F peak sharpening): 5 mM competitor.
The target in assay [2] is T1, β-gly W33G. Kind of assay: β-glycosidase enzyme assay, rescue of β-gly W33G by effector ligands. The assay is classed as biochemical, Sulfolobus solfataricus. The settings on record: for agonist class / concentration dependence of initial velocity / rescue of enzyme activity (in words) / effector dissociation constant KD (in words) / linkage term W (in words): 750 μM FDGal; for agonist class: concentration dependence; for concentration dependence of initial velocity / effector dissociation constant KD (in words) / linkage term W (in words): up to 5 mM effector; for rescue of enzyme activity (in words) / enhancement of initial velocity relative to apo enzyme: 2 mM effector; for effector dissociation constant KD (in words) / linkage term W (in words): fit of concentration dependence.

Another assay deals with β-gly W33A (Saccharolobus solfataricus, UniProt P22498, W33A). Kind of assay: β-glycosidase enzyme assay, rescue of β-gly W33A. The assay is classed as biochemical, Sulfolobus solfataricus. The settings on record: 750 μM FDGal.
The target of assay [3] is T1, β-gly W33G. The conditions noted are these: 10 mM indole, cited from earlier work.
Another assay concerns the target β-gly W33G_V37A (Saccharolobus solfataricus, UniProt P22498, V37A/W33G). The assay can be described thus: β-glycosidase enzyme assay, rescue of β-gly W33G_V37A. The format is biochemical, Sulfolobus solfataricus.
The target in another assay is T2, WT β-gly (Saccharolobus solfataricus, UniProt P22498).
T2 sequence (P22498 1-489): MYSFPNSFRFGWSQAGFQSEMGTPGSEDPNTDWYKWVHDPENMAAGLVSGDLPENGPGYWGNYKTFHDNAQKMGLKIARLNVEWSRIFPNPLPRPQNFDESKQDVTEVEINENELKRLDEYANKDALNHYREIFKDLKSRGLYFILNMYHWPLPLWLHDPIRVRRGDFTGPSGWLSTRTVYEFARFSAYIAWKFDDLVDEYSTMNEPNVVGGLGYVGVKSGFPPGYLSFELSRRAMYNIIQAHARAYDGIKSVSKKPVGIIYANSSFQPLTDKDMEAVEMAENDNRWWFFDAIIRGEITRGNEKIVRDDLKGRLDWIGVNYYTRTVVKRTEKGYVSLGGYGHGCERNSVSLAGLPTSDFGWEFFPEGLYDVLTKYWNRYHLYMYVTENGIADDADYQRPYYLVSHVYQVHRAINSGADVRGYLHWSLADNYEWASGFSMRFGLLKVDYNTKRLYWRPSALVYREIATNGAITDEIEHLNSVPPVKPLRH
Kind of assay: 19F NMR reporter binding, wild type β-gly. More on the design: species or system Sulfolobus solfataricus. The conditions noted are these: 2 mM 6-fluoroindole, 500 μM WT protein.

[4] abbreviates: fit of concentration dependence.

Sequence of β-gly W33A (P22498 whole entry W33A): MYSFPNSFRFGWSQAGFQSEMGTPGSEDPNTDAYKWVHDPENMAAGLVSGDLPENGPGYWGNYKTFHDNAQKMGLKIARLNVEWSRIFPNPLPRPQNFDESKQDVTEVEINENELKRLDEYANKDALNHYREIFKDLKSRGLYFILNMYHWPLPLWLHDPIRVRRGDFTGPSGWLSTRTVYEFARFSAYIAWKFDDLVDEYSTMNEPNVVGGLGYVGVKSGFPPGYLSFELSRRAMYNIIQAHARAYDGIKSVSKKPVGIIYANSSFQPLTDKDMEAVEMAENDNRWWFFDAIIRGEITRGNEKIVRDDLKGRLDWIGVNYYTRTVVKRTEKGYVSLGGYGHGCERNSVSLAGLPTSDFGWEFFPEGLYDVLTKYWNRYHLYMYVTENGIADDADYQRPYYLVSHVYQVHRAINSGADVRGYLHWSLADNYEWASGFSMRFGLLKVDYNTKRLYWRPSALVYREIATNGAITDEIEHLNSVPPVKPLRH
Sequence of β-gly W33G_V37A (P22498 whole entry W33G/V37A): as the sequence (P22498 whole entry W33A) above, with A33G, V37A counted along it
T1 sequence (P22498 whole entry W33G): as the sequence (P22498 whole entry W33A) above, with A33G counted along it

As to `Cc1c[nH]c2ccccc12` [3-methylindole], the “displacement of 6-fluoroindole reporter (19F peak sharpening)” value (from here on “displacement of 6-fluoroindole reporter”) at β-gly W33G [1] is given as “analogous peak sharpening”. In addition, at β-gly W33G [2], the agonist class result is listed as “partial agonists”, the “concentration dependence of initial velocity” value (“concentration dependence” for short) was “dose-dependent increases in the initial velocity”, the “rescue of enzyme activity (in words)” value is listed as “most rescue; also recorded: the next best rescuing compound” and the “effector dissociation constant KD (in words)” value is listed as “slightly better than for indole; also recorded: superior KD”. Also, the “linkage term W (in words)” value on β-gly W33G [2] was “worse than for indole”. Further, the “enhancement of initial velocity relative to apo enzyme” value at β-gly W33G [2] (FDGlc substrate 250 μM, indole versus 3-methylindole) is reported as “difference in rescue between these substrates is greatly reduced”. Further, the “rescue of enzyme activity (in words)” value at β-gly W33A is on record as “rescued activity better than indole”. In addition, the “linkage term W (in words)” value at β-gly W33A (setting [4]) is “lower for W33A than for W33G”.
Take `Fc1ccc2[nH]ccc2c1` [5-fluoroindole]: at β-gly W33G [2], the “concentration dependence” value is “enhanced β-glycosidase activity at each of the concentrations we tested”, the “effector dissociation constant KD (in words)” value is reported as “KD favors 5-fluoroindole” and the “linkage term W (in words)” value was “W favors indole”.
In the case of `c1ccc2[nH]ccc2c1` [indole], the “displacement of 6-fluoroindole reporter” value at β-gly W33G [1] is given as “signal sharpens”. Further, on β-gly W33G [2], the agonist class result is reported as “full agonist”, the “concentration dependence” value is “dose-dependent increases in the initial velocity”, the “rescue of enzyme activity (in words)” value was “about twice the activity of 5-methylindole” and the “linkage term W (in words)” value is “highest linkage term (W)”. For the same compound, the “enhancement of initial velocity relative to apo enzyme” value at β-gly W33G [2] (FDGal substrate 250 μM) was “better rescue with 2 mM indole than with 2 mM 3-methylindole”. Also, the “ligand efficiency (binding free energy per non-hydrogen atom)” value at β-gly W33G [2] (binding to β-gly W33G) is listed as −0.31 kcal/mol·atom. In addition, the “linkage term W (in words)” value at β-gly W33A (setting [4]) is “lower for W33A than for W33G”. At β-gly W33G [3] (W33G alone 730-fold decrease), the “restoration of kcat/Km relative to wild type” value is listed as “completely restored”. Moreover, the “restoration of wild type activity” value at β-gly W33G [3] is listed as “fully restored wild type activity”.
Turning to `CNc1ccccc1` [N-methylaniline], the “displacement of 6-fluoroindole reporter” value at β-gly W33G [1] was “analogous peak sharpening”. At β-gly W33G [2], the agonist class entry is “partial agonists”, the “concentration dependence” value is reported as “dose-dependent increases in the initial velocity”, the “rescue of enzyme activity (in words)” value is listed as “intermediate rescue” and the “linkage term W (in words)” value is listed as “superior W value”. Besides, the “rescue of enzyme activity (in words)” value on β-gly W33A is recorded as “better than either indole or 3-methylindole”. On β-gly W33A (setting [4]), the “binding affinity KD (in words)” value is reported as “poor binding affinity” and the “linkage term W (in words)” value is given as “highest value of W”.
`Cc1cc2ccccc2[nH]1` [2-methylindole]: the “displacement of 6-fluoroindole reporter” value on β-gly W33G [1] is recorded as “very little, if any, peak sharpening; also recorded: does not bind to this site”. For the same compound, on β-gly W33G [2], the “rescue of enzyme activity (in words)” value is on record as “no increase in activity over the apo enzyme”.
Take `Cc1ccc2[nH]ccc2c1` [5-methylindole]: the “rescue of enzyme activity (in words)” value at β-gly W33G_V37A (2 mM effector, 750 μM FDGal) was “superior over indole”. The “ligand efficiency (binding free energy per non-hydrogen atom)” value at β-gly W33G_V37A (5-methylindole / β-gly W33G_V37A switch) is given as −0.43 kcal/mol·atom. Moreover, the “binding affinity KD (in words)” value on β-gly W33G_V37A (fit of concentration dependence, 750 μM FDGal) was “almost an order of magnitude tighter than that of indole”.
For the compound `Fc1ccc2cc[nH]c2c1` [6-fluoroindole], the “19F signal of reporter upon addition of protein” value on β-gly W33G [1] (covalent substrate analog attached) is “considerable peak broadening”; at WT β-gly, “no change to this peak”. The “rescue of enzyme activity (in words)” value on β-gly W33G [2] was “very similar level as indole itself”.
